Measured values taken from the supplement of paper PMC13380429.

Key:
Settings in all cases: 72 h
U2OS [1] = experiment: relative viability EC50 (midpoint between 100% and the lowest measured viability); higher = less toxic
Vero E6 [2] = experiment: as above
Calu-3 [3] = experiment: as above
HepG2 [4] = experiment: as above
Caco-2 [5] = experiment: as above
U2OS [6] = experiment: cell viability relative to DMSO; higher = less toxic
Vero E6 [7] = experiment: as above
Calu-3 [8] = experiment: as above
HepG2 [9] = experiment: as above
Caco-2 [10] = experiment: as above
U2OS [11] = experiment: drug sensitivity score (DSS) for viability; higher = more toxic; extreme values may be limits of the assay
Vero E6 [12] = experiment: as above
Calu-3 [13] = experiment: as above
HepG2 [14] = experiment: as above
Caco-2 [15] = experiment: as above

SMILES | relative viability EC50 (U2OS [1]) [µM] | relative viability EC50 (Vero E6 [2]) [µM] | relative viability EC50 (Calu-3 [3]) [µM] | relative viability EC50 (HepG2 [4]) [µM] | relative viability EC50 (Caco-2 [5]) [µM] | cell viability (U2OS [6]; 1 nM) [%] | cell viability (U2OS [6]; 10 nM) [%] | cell viability (U2OS [6]; 100 nM) [%] | cell viability (U2OS [6]; 1000 nM) [%] | cell viability (U2OS [6]; 10000 nM) [%] | cell viability (Vero E6 [7]; 1 nM) [%] | cell viability (Vero E6 [7]; 10 nM) [%] | cell viability (Vero E6 [7]; 100 nM) [%] | cell viability (Vero E6 [7]; 1000 nM) [%] | cell viability (Vero E6 [7]; 10000 nM) [%] | cell viability (Calu-3 [8]; 1 nM) [%] | cell viability (Calu-3 [8]; 10 nM) [%] | cell viability (Calu-3 [8]; 100 nM) [%] | cell viability (Calu-3 [8]; 1000 nM) [%] | cell viability (Calu-3 [8]; 10000 nM) [%] | cell viability (HepG2 [9]; 1 nM) [%] | cell viability (HepG2 [9]; 10 nM) [%] | cell viability (HepG2 [9]; 100 nM) [%] | cell viability (HepG2 [9]; 1000 nM) [%] | cell viability (HepG2 [9]; 10000 nM) [%] | cell viability (Caco-2 [10]; 1 nM) [%] | cell viability (Caco-2 [10]; 10 nM) [%] | cell viability (Caco-2 [10]; 100 nM) [%] | cell viability (Caco-2 [10]; 1000 nM) [%] | cell viability (Caco-2 [10]; 10000 nM) [%] | drug sensitivity score (U2OS [11]) | drug sensitivity score (Vero E6 [12]) | drug sensitivity score (Calu-3 [13]) | drug sensitivity score (HepG2 [14]) | drug sensitivity score (Caco-2 [15])
CCOc1cccc(NC(=O)c2ccc(N3CCCC3)c(C(F)(F)F)c2)c1 [EPPTB] | > 10 | > 10 | > 10 | > 10 | > 10 | 101 | 99.2 | 97.4 | 99.1 | 90.9 | 101 | 102 | 97.3 | 95.5 | 101 | 98.9 | 99.5 | 98.3 | 102 | 83.9 | 90.9 | 96.2 | 96.4 | 91.5 | 97.5 | 106 | 101 | 89 | 92.7 | 86.4 | 0 | 0 | 0.2 | 0 | 1.6
CCCCC(=O)O[C@H]1CC[C@H]2[C@@H]3CCc4cc(O)ccc4[C@H]3CC[C@]12C [ESTRADIOL VALERATE] | > 10 | > 10 | > 10 | > 10 | > 10 | 106 | 108 | 103 | 106 | 96.5 | 101 | 102 | 103 | 99.5 | 100 | 99.8 | 104 | 96.4 | 97.8 | 83.8 | 109 | 106 | 101 | 97.6 | 108 | 104 | 94.6 | 97 | 105 | 85.8 | 0 | 0 | 0.6 | 0 | 0.1
C[C@@H](NC(=O)[C@@H](N)Cc1ccc(O)cc1)C(=O)NCC(=O)N(C)[C@@H](Cc1ccccc1)C(=O)N[C@H](CO)CC[S+](C)[O-] (stereo not given in full) [FK-33-824] | > 10 | > 10 | > 10 | > 10 | > 10 | 98.8 | 106 | 98.6 | 101 | 100 | 99.5 | 97.5 | 93.3 | 97 | 107 | 98.7 | 94.1 | 99.4 | 92.1 | 92.6 | 98.9 | 93.7 | 109 | 101 | 100 | 98 | 95.7 | 90.7 | 96.1 | 102 | 0 | 0 | 0 | 0 | 0
CCNC(=O)Nc1ccc(-c2nc3c(c(N4CCOC[C@@H]4C)n2)CCN(C2COC2)C3)cc1 [GDC-0349] | 1.17 | 1.46 | 0.211 | 0.6 | 0.295 | 102 | 98.9 | 94.6 | 66.2 | 21.1 | 106 | 105 | 94.2 | 81.2 | 40.3 | 101 | 100 | 79 | 39.5 | 29.5 | 114 | 99.8 | 95.9 | 49 | 26.3 | 107 | 95.7 | 82.3 | 51.7 | 35 | 8.3 | 5.6 | 13.7 | 10.4 | 11.1
CC(C)(Sc1ccc(CCN(CCCCC2CCCCC2)C(=O)NC2CCCCC2)cc1)C(=O)O [GW-7647] | > 10 | > 10 | > 10 | > 10 | > 10 | 101 | 101 | 105 | 96.2 | 98.2 | 97.3 | 100 | 91.1 | 97.7 | 110 | 97.9 | 110 | 100 | 94.6 | 100 | 87 | 95.3 | 99.1 | 87 | 101 | 87.7 | 101 | 98.3 | 104 | 103 | 0 | 0 | 0 | 0 | 0
CCn1c2ccccc2c2cc(CNCc3ccccc3OC)ccc21 [HLCL-61] | > 10 | > 10 | > 10 | > 10 | > 10 | 100 | 96.6 | 99.2 | 102 | 94.9 | 91.3 | 93.2 | 88.2 | 88.8 | 93.5 | 111 | 99.5 | 95.7 | 106 | 87.9 | 106 | 95.4 | 93.5 | 95.6 | 79.2 | 103 | 92 | 94.6 | 107 | 101 | 0 | 0.1 | 0 | 1.1 | 0
O=C(O)c1ccc(O)c2ncccc12 [IOX1] | > 10 | > 10 | > 10 | > 10 | > 10 | 99.9 | 100 | 100 | 103 | 99.7 | 98 | 92.3 | 103 | 101 | 106 | 97.6 | 99.5 | 98.2 | 105 | 86.7 | 110 | 90.1 | 87.4 | 101 | 94.7 | 89 | 97.7 | 97.6 | 104 | 102 | 0 | 0 | 0 | 0 | 0
C[C@]12CC[C@H]3[C@@H](CC[C@]4(O)C[C@@H](O)CC[C@]34C=O)[C@@]1(O)CC[C@@H]2C1=CC(=O)OC1 [K-strophanthidin] | 1.43 | 0.151 | 2.28 | 0.807 | 0.975 | 96.9 | 98.7 | 96.6 | 72.4 | 5.2 | 99.5 | 98.8 | 72.6 | 1.9 | 0.9 | 98.2 | 102 | 107 | 92 | 25.8 | 96.4 | 88.6 | 102 | 46.2 | 14.8 | 87.6 | 110 | 99.4 | 68.5 | 38.8 | 9.3 | 21.8 | 5.4 | 11.1 | 7.3
N=C(N)SCCc1ccc(OCc2ccc([N+](=O)[O-])cc2)cc1 [KB-R7943] | > 10 | > 10 | > 10 | > 10 | > 10 | 96.5 | 105 | 98.3 | 105 | 102 | 99.7 | 101 | 99.2 | 97.4 | 90.4 | 104 | 110 | 93.5 | 99.6 | 98.4 | 96.2 | 108 | 108 | 90.3 | 78.8 | 88.7 | 103 | 99.2 | 97.2 | 94.5 | 0 | 0 | 0 | 1.7 | 0
CSc1ccccc1Nc1nc(N2CCNCC2)nc2c(NCC3CC3)ncnc12 [KHK-IN-1] | 3.04 | 2.26 | 2.7 | 2.47 | 3.39 | 97.6 | 98.7 | 95.7 | 98.2 | 0.1 | 101 | 98.1 | 96.1 | 89.1 | 0.1 | 99.5 | 95.4 | 106 | 94.1 | 0.2 | 104 | 91 | 94.1 | 91.6 | 0 | 103 | 107 | 98.7 | 104 | 0.6 | 5.8 | 7.3 | 6.4 | 6.9 | 5.2
O=C(Nc1ccccc1C(=O)Nc1ccc(CCO)cc1)c1ccc([N+](=O)[O-])cc1 [KS-176] | > 10 | > 10 | > 10 | > 10 | > 10 | 96.7 | 104 | 97.6 | 97.8 | 93.4 | 98.2 | 102 | 99.2 | 92.6 | 93.1 | 100 | 87.9 | 98.1 | 102 | 91.5 | 94 | 95 | 96.3 | 95.2 | 83.2 | 94 | 94.8 | 87.9 | 97.5 | 90.6 | 0 | 0 | 0 | 0.1 | 0
N=C(N)NCCC[C@H](N)C(=O)O [L-arginine] | > 10 | > 10 | > 10 | > 10 | > 10 | 105 | 94.9 | 99.6 | 94.6 | 101 | 97.2 | 99.2 | 102 | 103 | 102 | 104 | 95.7 | 104 | 99 | 99.3 | 95.3 | 96.5 | 95.5 | 96 | 89.4 | 97.6 | 114 | 96.9 | 107 | 98.9 | 0 | 0 | 0 | 0 | 0
N[C@@H](CS(=O)O)C(=O)O [L-cysteinesulfinic-acid] | > 10 | > 10 | > 10 | > 10 | > 10 | 99.5 | 97.3 | 98.5 | 106 | 101 | 91 | 95.8 | 93.2 | 95.1 | 102 | 94 | 97.3 | 105 | 111 | 107 | 93.5 | 90.9 | 77.8 | 89.9 | 102 | 96.8 | 93.2 | 102 | 105 | 101 | 0 | 0 | 0 | 0.2 | 0
CN1CCN(C(=O)C2C(C(=O)O)[C@H]3CC[C@@H]2O3)CC1 (stereo not given in full) [LB-100] | > 10 | > 10 | > 10 | > 10 | 1.58 | 103 | 92.9 | 99.4 | 96.2 | 95.6 | 98.3 | 101 | 93.1 | 99 | 106 | 95.6 | 91.5 | 106 | 92.8 | 86.7 | 98.6 | 97.3 | 109 | 96.6 | 102 | 103 | 85.7 | 99.8 | 84.7 | 36.5 | 0 | 0 | 0.5 | 0 | 5.9
CS(=O)(=O)OCOS(C)(=O)=O [MDMS] | > 10 | > 10 | > 10 | > 10 | > 10 | 100 | 102 | 99.6 | 106 | 104 | 99.8 | 98.4 | 102 | 98.7 | 101 | 102 | 103 | 95.9 | 100 | 97.7 | 109 | 97.1 | 112 | 112 | 107 | 104 | 105 | 98.1 | 99.7 | 101 | 0 | 0 | 0 | 0 | 0
